Measurements as given in patent US20250154611A1, “SYSTEMS AND METHODS TO DETECT STEM CELL STRESS AND USES THEREOF” (Wayne State University, priority 2014, published 2025).

Assays:
[1] = test system: mESCs; assay: RT-qPCR of lineage markers Dab2, Lrp2, Fgf5 in mESC monolayer; type: cell-based, mouse; conditions: 24 hr
Excerpt: FIGS. 16A-16E. Hyperosmotic stress in mESCs impacts transcription factor expression at protein and mRNA levels. (FIG. 16A) The inner cell mass (ICM) of the blastocyst coexpresses Oct4/Rex1/Nanog in pluripotent cells at E3.5. After E3.5 a Rex1 subpopulation delaminates from the ICM and expresses primitive endoderm (PrEndo) marker, Lrp2, at E3.5 and extraembryonic endoderm (ExEndo) marker, Dab2, at E4.5. At E4.75, Rex1 decreases in the remaining cells of the ICM and, by E5.5, fibroblast growth factor (FGF)5 is expressed in embryonic ectoderm (EmEcto). […] (FIG. 16C) Total RNA was isolated and subjected to reverse transcription to form complementary DNA (cDNA). Real-time quantitative PCR (RTqPCR) was performed with Oct4, Nanog, and Rex1 primers. Histograms represent relative fold change in mRNA expression using the ddCt method. (FIG. 16D) mESCs in monolayer were incubated±sorbitol and ±LIF for 24 hr. Dab2, Lrp2, and Fgf5 mRNA transcript levels were examined by RT-qPCR. […] Error flags are the standard error of the mean (n=3). “a” indicates significant difference for sorbitol +LIF compared with LIF− at 24 hr. […]
RT-qPCR analysis. mESCs were trypsinized and harvested for RT-Qpcr analysis using a 7500 Fast Real Time PCR System (Applied Biosystems). […] RNA content was measured using ND-1000 Spectrophotometer (NanoDrop and ThermoScientific, Wilmington, DE). Complementary DNA (cDNA) was synthesized from 50 to 100 ng of total RNA using QuantiTect Reverse Transcription Kit (Qiagen) according to the manufacturer's instructions, and diluted 1:5. […]
Primer pairs were checked for specificity using BLAST analysis and were checked by both agarose gel electrophoresis and thermal dissociation curves to ensure amplification of a single product, and to rule out formation of primer dimers during the RT-qPCR. […] The expression of the target genes was quantified against that of two internal reference genes, glyceraldehyde-3-phosphate dehydrogenase (GAPDH) and 18s ribosomal RNA subunit (18s rRNA). […] Fold change was determined using the ddCt method. […]

[2] = test system: Rex1; assay: Immunoblot of endogenous Rex1 protein in Rex1-RFP ESCs; type: cell-based, mouse; conditions: 3 days
Experimental: FIG. 27. Rex1 promoter RFP have a stress dose-dependent loss of endogenous Rex1 protein corresponding to dose-dependent loss of Rex1 activity shown in FIG. 24. (A) Rex1-RFP mESCs expressing cultured until 30% confluent, treated with 0 mM, 200-300 mM sorbitol in 25 mM increments for 3 days (as in FIG. 24), lysed, size fractionated by SDS-PAGE, blotted, probed for Rex1 and ACTB proteins and analyzed for changes compared to time zero and for stress dose responses. The histogram bars are derived from three independent experiments, one of which is shown in the top panel of FIG. 27, shown are X+/−s.e.m., n=3, (a) is P<0.01 and (b) indicates not significant. FIG. 27, bottom panel.
Immunoblot. After treatment, the ESCs were rinsed with PBS, lysed with RIPA buffer supplemented with protease inhibitors and sonicated briefly. Total protein concentration was determined using Pierce BCA protein assay reagent admixed with Laemmli sample buffer, and boiled for 5 min. Equal total protein amounts from the lysates were size-fractionated by 5-20% gradient SDS-PAGE and transferred onto nitrocellulose membrane. Rex1 […] signals were detected using ECL reagent with X-ray films and quantified using ImageJ 1.48v software (NIH, USA).
Finally it was tested whether endogenous Rex1 protein levels decreased commensurately with decreases in Rex1-RFP activity levels assayed in FIG. 24. Rex1-RFP ESCs were cultured for 3 days with 0-300 mM sorbitol and assayed by immunoblot for endogenous Rex1 levels normalized to ACTB loading controls and with time zero unstressed Rex1 set to 100 as a baseline level. Whereas stress-induced decrease in Rex1 activity in FIG. 24 were 20% and 70% at 200 mM and 300 mM sorbitol, respectively endogenous Rex1 protein losses were 30% and 70% at 200 mM and 300 mM, respectively (FIG. 27). Through the series from 200 mM to 300 mM sorbitol there was generally good agreement between activity level and endogenous protein level for Rex1 at 3 days of stress and with Rex1 protein loss at 1 day (Example 2). […]

[3] = 200 mM +LIF, vs time-matched +LIF and -LIF controls

OC[C@@H](O)[C@@H](O)[C@H](O)[C@@H](O)CO [sorbitol]
Dab2 mRNA expression [1, 3]: significantly higher | Lrp2 mRNA expression [1, 3]: significantly higher | upregulation of EmEcto marker Fgf5 mRNA ([1]; 200 mM): suppressed | endogenous Rex1 protein loss ([2]; 200 mM): 30% | endogenous Rex1 protein loss ([2]; 300 mM): 70% | endogenous Rex1 protein ([2]; 225-300 mM, not at 200 mM): significantly lower
